Measured values taken from US20050026957A1, “Methods of treating nodulocystic acne” (Allergan, Inc., priority 2003, published 2005).

Experiments:
[1] = oral, cited from earlier work; for impact of food on bioavailability: literature
sebaceous glands = conditions: severe acne; published reports (Geiger); cited from earlier work
[2] = in vivo; cited from earlier work
severe nodulocystic acne = assay: Double-blind, randomized, placebo-controlled study of oral tazarotene in severe nodulocystic acne; assay type: in vivo, human
Source text: A multicenter, double-blind, randomized, placebo-controlled parallel-group study is undertaken to determine the efficacy of orally administered tazarotene in treating severe nodulocystic acne.
In addition, washout periods for other medications for this study are: 1 week for vitamin A supplements >5000 IU; 2 weeks for topical anti-acne medications (e.g., retinoids, azelaic acid, benzoyl peroxide); 2 weeks for topical or systemic antibiotic therapy that may alter the course of acne; and 6 months for systemic retinoids.
Patients are randomized to receive placebo or oral tazarotene (0.75, 1.5, 3, or 6 mg), in a 1:1:1:1:1 ratio once daily for 24 weeks. After this, the patients are followed without treatment for an additional 12 weeks. Patients discontinuing from the treatment period due to adverse effects or lack of efficacy are eligible for entry into the post-treatment phase.
In the study, overall acne severity is rated as: none (no inflammatory acne lesions); mild (few to several papules or pustules, no nodulocystic lesions); moderate (several to many papules or pustules, few to several nodulocystic lesions); and severe (numerous or extensive papules or pustules, many, for example, at least about 5 or at least about 10, nodulocystic lesions). […]
(§1) Sebum output is assessed every 4 weeks at selected centers using the Sebutape® patches, sold by Cuderm Corporation. Urinalysis, chemistry, and hematology values are monitored. Bone formation and resorption assessments (serum bone alkaline phosphatase and serum amino terminal telopeptides, respectively) at selected centers are monitored.
Bone mineral density of spine and proximal femur at selected centers is monitored. Ligament calcification or osteophyte formation (lateral X-ray of the cervical and thoracic spine, and ankle calcaneous) is monitored. Epiphyseal growth plate closure (internal oblique X-ray of the ankle in patients less than or equal to 21 years old) is monitored.

[3] = tested on: patients having nodulocystic acne; assay: Two placebo-controlled dose-ranging safety studies of oral tazarotene in nodulocystic acne; assay type: in vivo, human; conditions: for cheilitis: treatment period; for Emotional lability: all cases mild
Protocol: Two placebo-controlled dose-ranging studies are conducted to evaluate the safety of oral tazarotene in patients having nodulocystic acne. In the first study, patients receive orally administered tazarotene at daily doses of 0.4 mg to 2.8 mg in 96 (71+25) patients (12 weeks treatment plus 12 weeks post-treatment). In the second study, daily doses of 0.75 mg to 6 mg tazarotene are administered to 181 patients (24 weeks treatment plus 12 weeks post-treatment).

[4] = tested on: patients treated for acne; assay: Adverse event monitoring in studies of orally administered tazarotene for acne (Table 2); assay type: in vivo, human; conditions: combined data from Studies 1 and 2 (N = 223)
Protocol: Studies are conducted on orally administered tazarotene for the treatment of acne. Adverse events (side effects) are monitored.

patients = assay: Two placebo-controlled 24-week safety studies of oral tazarotene plus dose-response evaluations; assay type: in vivo, human; conditions: 4.5 mg orally once daily; two safety trials; placebo 17%
Protocol: Two multicenter, double-blind, randomized, placebo-controlled 24-week studies of identical design are conducted to evaluate the safety of oral tazarotene. In addition, 16- to 24-week dose-response evaluations are performed.
In the two safety trials, the incidence of adverse side effects with a 4.5 mg dose administered orally once daily is compared to the incidence of the same side effects with a placebo. […] The majority of these were mild in severity and typical of adverse effects associated with oral retinoids.

sebum secretion = assay: Sebum output by Sebutape patches in the nodulocystic acne study; assay type: in vivo, human; conditions: oral 0.75 to 6 mg once daily; up to 86 patients
Protocol: as §1
Sebum secretion output is assessed in a maximum of 86 patients (with successively fewer patients at each timepoint—e.g., 60 patients at week 24, 46 patients at week 36). Importantly, there is no consistent statistically significant differences in sebum production across treatment groups using the Sebutape® method of assessment.

severe psoriasis = assay: Patient with severe psoriasis on Ortho-Novum treated with tazarotene; assay type: in vivo, human; conditions: 6 mg per day; after 30 days
Source text: The patient presents symptoms of severe psoriasis. The symptoms include lesions approximately 4 to 10 centimeters across appearing as raised patches of wine red skin many of which are covered in silvery white scales. The lesions are mostly dry and rough, and quite often noticeably warm to the touch. The lesions are present on the elbows, knees, scalp, and groin area. The patient experiences intense burning and itching associated with the lesions.
The patient is currently taking Ortho-Novum® for contraception.
Tazarotene at a dose of 6 mg per day is prescribed.

[5] = topical administration of tazarotene; 'often well less than'; cited from earlier work
[6] = Food effect on pharmacokinetics of tazarotenic acid after oral tazarotene (high-fat meal vs fast); assay type: in vivo, human; conditions: 6.3 mg oral tazarotene, healthy subjects; for average ratio of Cmax values (test/reference): high-fat meal vs 8-10 hour fast
Protocol: For the purposes of this application, the bioavailability of a drug may be based on the human pharmokinetic parameters of maximum blood concentration (Cmax) and Area under the blood concentration-time curve (AUC).
The LC-MS/MS test for simultaneous detection of tazarotene and tazarotenic acid may be run as follows. One ml of plasma (EDTA-treated) is diluted with 1.0 ml of water. Diluted plasma is extracted using solid phase extraction (SPE) on a C18 cartridge. The eluate is evaporated, reconstituted in a water/methanol-based mobile phase, and injected onto a 4.6×50 mm, 3 μm pore size C-8 reverse phase high pressure liquid chromatography (HPLC) column (Agilent, Wilmington, Del.). Compounds are gradient-eluted at 1.2 mL/min and detected using an API 3000 triple quadrupole mass spectrometer with an Atmospheric Pressure Chemical Ionization (APCI) source (PE-Sciex, Concord, Ontario, Canada). Molecular reaction monitoring enhances the sensitivity and selectivity of this assay by collisionally dissociating the protonated molecules for the analyte and an internal standard thereby forming the product ions. The specific precursor-product ion pair monitored are m/z 352→324 for tazarotene, m/z 359→331 for the tazarotene internal standard, m/z 324→294 for tazarotenic acid, and m/z 331+298 for the tazarotenic acid internal standard. The lower limit of quantitation at assay range tested is 0.1 ng/mL, with a coefficient of variation and deviation from nominal concentration of <15%.

[7] = PK and PD interaction studies of oral tazarotene with oral contraceptives; assay type: in vivo, human; conditions: tazarotene 1.1 mg or 6 mg daily with NE/EE or NGM/EE
Protocol: It is the objective of this study to determine if there are pharmacokinetic (PK) and pharmacodynamic (PD) interactions between tazarotene and commonly prescribed oral contraceptives (OCs) when coadministered together.
Three separate clinical studies are conducted to evaluate the PK and PD interactions of oral tazarotene and OCs in healthy volunteers. Two studies evaluate daily doses of norethindrone (NE)/ethinyl estradiol (EE) with daily doses of tazarotene 1.1 mg (N=27) and 6 mg (N=29). The third study assesses the daily doses of norgestimate (NGM)/EE with daily doses of tazarotene 6 mg (N=26). OCs are administered for three consecutive menstrual cycles. Daily doses of tazarotene are started during the 2nd cycle and continued through the end of the studies. PK parameters for EE, NE, and NGM (AUC0-24 and Cmax) are determined before tazarotene dosing and after tazarotene dosing on day 6 of the 2nd and 3rd cycles. Serum concentrations of luteinizing hormone (LH) and follicle-stimulating hormone (FSH)-markers of contraceptive efficacy are also evaluated before tazarotene dosing and after tazarotene dosing on days 2, 4, and 6 of the 2nd and 3rd cycles. Serum progesterone levels are assessed on days 18 and 20 of the 2nd and 3rd cycles. […]

## COc1cc(C)c(/C=C/C(C)=C/C=C/C(C)=C/C(=O)O)c(C)c1C [Acitretin, acitretin]
[1]
  impact of food on bioavailability: bioavailability is increased in the presence of food

## CC1=C(/C=C/C(C)=C/C=C/C(C)=C\C(=O)O)C(C)(C)CCC1 [Isotretinoin, isotretinoin]
[1]
  total dose needed to reach the same peak blood concentration in the fasted state vs following a high fat meal: more than doubled
  impact of food on bioavailability: bioavailability is increased in the presence of food
Sebaceous glands
  decrease in sebum secretion rate: about 90%
[2]
  effect on coadministered contraceptive tablets: decreases blood concentrations of both ethinyl estradiol and norethindrone

## C=C(c1ccc(C(=O)O)cc1)c1cc2c(cc1C)C(C)(C)CCC2(C)C [bexarotene]
[1]
  impact of food on bioavailability: bioavailability is increased in the presence of food

## CCOC(=O)c1ccc(C#Cc2ccc3c(c2)C(C)(C)CCS3)nc1 [tazarotene]
Severe nodulocystic acne; 3 mg and 6 mg, week 24 and throughout post-treatment phase, p≦0.05
  incidence of treatment success (≧50% global improvement) vs placebo: significantly higher
Severe nodulocystic acne; 6 mg, week 16 until end of post-treatment phase, p≦0.01
  reduction of overall acne severity: significantly more than placebo
Severe nodulocystic acne; oral 0.75 to 6 mg once daily
  abnormalities in liver function test results or elevated triglycerides, total cholesterol, or HDL cholesterol: not generally associated
[3]; 2.8 mg, n=11, placebo 0%
  joint disorder: 27%
[3]; 2.8 mg, n=11, placebo 6%
  arthralgia: 9%
[3]; 2.8 mg, n=11, placebo 9%
  myalgia: 0%
[3]; 2.8 mg, n=11, placebo 13%
  asthenia: 0%
[3]; 2.8 mg, n=11, placebo 19%
  dry skin: 18%
[3]; 2.8 mg, n=11, placebo 28%
  headache: 9%
[3]; 2.8 mg, n=11, placebo 31%
  cheilitis: 64%
[3]; 3 mg group, placebo 2 (4%)
  Emotional lability: 1 (3%) patient (%)
[3]; 3 mg, n=37
  arthralgia: 8%
  asthenia: 19%
  dry skin: 35%
  headache: 19%
  joint disorder: 14%
  myalgia: 16%
  cheilitis: 78%
[3]; 6 mg group
  Depression: none
  Emotional lability: 5 (14%) patient (%)
[3]; 6 mg, n=36
  arthralgia: 28%
  asthenia: 19%
  dry skin: 50%
  headache: 36%
  joint disorder: 19%
  myalgia: 25%
  cheilitis: 94%
[3]; 0.4 to 6 mg daily
  changes in urinalysis, chemistry, or hematology measures (incl. liver function tests, triglycerides, total cholesterol, HDL cholesterol): no consistent dose-related clinically significant changes
[3]; 7/277, all groups of both studies incl. placebo
  patients withdrawing from either study due to adverse events: 2.5%
[4]
  Conjunctivitis: 0 (0.0) NUMBER OF (%) OF PATIENTS
  Irritation of eyes: 0 (0.0) NUMBER OF (%) OF PATIENTS
patients
  incidence of cheilitis: 66%
Sebum secretion
  effect on sebum secretion (Sebutape method): does not substantially reduce sebum secretion relative to placebo
Severe psoriasis
  psoriasis symptoms and lesions: symptoms of itching and burning are relieved

## CC1(C)CCSc2ccc(C#Cc3ccc(C(=O)O)cn3)cc21 [tazarotenic acid]
[5]
  maximum blood concentration: less than 30 ng/ml
[6]; single and multiple dose
  effect of high-fat meal on bioavailability or pharmacokinetics: does not substantially affect
[6]; Day 0
  average ratio of Cmax values (test/reference): 1.00
[6]; Day 9
  average ratio of Cmax values (test/reference): 0.829
[7]
  90% confidence intervals of AUC0-24 and Cmax for EE, NE, and NGM: within the 80-125% boundary
